Experimental data reported in patent US5290347A, “Salt-forming type dye, and its concentrated solution composition and ink composition” (Orient Chemical Industries, Ltd., priority 1991, dated 1994).

Assays:
[1] = Solubility of the salt-forming type dyes (Tables 1-3); type: physicochemical; settings: for Solubility, Ethanol: solvent: ethanol; for Solubility, Glycol ether: solvent: glycol ether
[2] = Solubility of the comparative dyes (Table 4), evaluation A-D; type: physicochemical; settings: for Solubility, Glycol ether: solvent: glycol ether; for Solubility, Lower alcohol: solvent: lower alcohol; for Solubility, Water: solvent: water

| Solubility, Water:Solvent = 2:8 [1] [g/100 ml] | Solubility, Ethanol [1] [g/100 ml] | Solubility, Glycol ether [1] [g/100 ml] | Solubility, Water:Solvent = 2:8 [2] | Solubility, Glycol ether [2] | Solubility, Lower alcohol [2] | SMILES | Solubility, Water [2] |
| --- | --- | --- | --- | --- | --- | --- | --- |
| 20 | 5 | 30 | – | – | – | Nc1ccc2cc(S(=O)(=O)O)c(N=Nc3ccc(N=Nc4cccc(P(=O)(O)O)c4)c4ccc(S(=O)(=O)O)cc34)c(O)c2c1 [Black No. 3] | – |
| 10 | 10 | 15 | – | – | – | CC1(C)Nc2cccc3c(N=Nc4cc(S(=O)(=O)O)cc5cc(S(=O)(=O)O)c(N=Nc6cccc(P(=O)(O)O)c6)c(O)c45)ccc(c23)N1 [Black No. 6] | – |
| 30 | 3 | 20 | – | – | – | Nc1ccc2cc(S(=O)(=O)O)cc(O)c2c1N=Nc1cc(S(=O)(=O)O)cc2cc(S(=O)(=O)O)c(N=Nc3cccc(P(=O)(O)O)c3)c(O)c12 [Black No. 7] | – |
| 20 | 8 | 30 | – | – | – | Nc1ccc2cc(S(=O)(=O)O)c(N=Nc3ccc(N=Nc4cccc(P(=O)(O)O)c4)c4ccc(S(=O)(=O)O)cc34)c(O)c2c1 [Black No. 8] | – |
| 30 | 3 | 25 | – | – | – | Nc1c(N=Nc2cccc(P(=O)(O)O)c2)c(S(=O)(=O)O)cc2cc(S(=O)(=O)O)c(N=Nc3cccc(P(=O)(O)O)c3)c(O)c12 [Blue No. 1] | – |
| 30 | 5 | 25 | – | – | – | Nc1cc(S(=O)(=O)O)cc2cc(S(=O)(=O)O)c(N=Nc3ccc(N=Nc4cccc(P(=O)(O)O)c4)c4ccc(O)cc34)c(O)c12 [Blue No. 2] | – |
| 25 | 10 | 30 | – | – | – | COc1cc(N=Nc2cccc(P(=O)(O)O)c2)c(C)cc1N=Nc1c(S(=O)(=O)O)cc2cc(S(=O)(=O)O)cc(N)c2c1O [Blue No. 3] | – |
| 30 | 10 | 20 | – | – | – | O=P(O)(O)c1cccc(N=Nc2ccc(N=Nc3c(O)ccc4cc(S(=O)(=O)O)cc(S(=O)(=O)O)c34)cc2)c1 [Red No. 1] | – |
| 30 | 8 | 25 | – | – | – | CC(=O)Nc1cc(S(=O)(=O)O)cc2cc(S(=O)(=O)O)c(N=Nc3cccc(P(=O)(O)O)c3)c(O)c12 [Red No. 2] | – |
| – | – | – | C (dissolved in an amount of 5% or less) | C (dissolved in an amount of 5% or less) | D (dissolved in an amount of 1% or less) | O=P(O)(O)c1cccc(N=Nc2ccc(N=Nc3c(O)ccc4cc(S(=O)(=O)O)cc(S(=O)(=O)O)c34)cc2)c1 [compound 4] | A (dissolved in an amount of 10% or more) |
| – | – | – | C (dissolved in an amount of 5% or less) | D (dissolved in an amount of 1% or less) | D (dissolved in an amount of 1% or less) | CC(=O)Nc1cc(S(=O)(=O)O)cc2cc(S(=O)(=O)O)c(N=Nc3cccc(P(=O)(O)O)c3)c(O)c12 [compound 7] | A (dissolved in an amount of 10% or more) |

The remaining lines, values behind:

| SMILES | Solubility, Water:Solvent = 2:8 [1] [g/100 ml] | Solubility, Ethanol [1] [g/100 ml] | Solubility, Glycol ether [1] [g/100 ml] | Solubility, Water:Solvent = 2:8 [2] | Solubility, Glycol ether [2] | Solubility, Lower alcohol [2] | Solubility, Water [2] |
| --- | --- | --- | --- | --- | --- | --- | --- |
| COc1cc(N=Nc2cccc(P(=O)(O)O)c2)c(C)cc1N=Nc1c(S(=O)(=O)O)cc2ccc(N)cc2c1O [Black No. 1] | 15 | 3 | 10 | – | – | – | – |
| COc1cc(N=Nc2cccc(P(=O)(O)O)c2)c(C)cc1N=Nc1c(S(=O)(=O)O)cc2ccc(N)cc2c1O [Black No. 2] | 10 | 5 | 15 | – | – | – | – |
| Nc1cc2c(O)c(N=Nc3ccc(N=Nc4cccc(P(=O)(O)O)c4)c4ccc(S(=O)(=O)O)cc34)c(S(=O)(=O)O)cc2cc1S(=O)(=O)O [Black No. 4] | 30 | 5 | 30 | – | – | – | – |
| Nc1cc2c(O)c(N=Nc3ccc(N=Nc4cccc(P(=O)(O)O)c4)c4ccc(S(=O)(=O)O)cc34)c(S(=O)(=O)O)cc2cc1S(=O)(=O)O [Black No. 5] | 10 | 10 | 30 | – | – | – | – |
| O=P(O)(O)c1cccc(N=Nc2c(S(=O)(=O)O)cc3cc(Nc4ccc5c(O)c(N=Nc6cccc(P(=O)(O)O)c6)c(S(=O)(=O)O)cc5c4)ccc3c2O)c1 [Red No. 3] | 30 | 5 | 25 | – | – | – | – |
| Nc1cc(N=Nc2cccc(P(=O)(O)O)c2)c2c(O)cc(S(=O)(=O)O)cc2c1N=Nc1cccc(P(=O)(O)O)c1 [Red No. 4] | 30 | 3 | 30 | – | – | – | – |
| Cc1nn(-c2ccccc2)c(O)c1N=Nc1cccc(P(=O)(O)O)c1 [compound 1] | – | – | – | C (dissolved in an amount of 5% or less) | C (dissolved in an amount of 5% or less) | D (dissolved in an amount of 1% or less) | D (dissolved in an amount of 1% or less) |
| Cc1nn(-c2ccccc2)c(O)c1N=Nc1cccc(S(=O)(=O)O)c1 [compound 2] | – | – | – | C (dissolved in an amount of 5% or less) | B (dissolved in an amount of 5~10%) | C (dissolved in an amount of 5% or less) | D (dissolved in an amount of 1% or less) |
| Nc1cc(S(=O)(=O)O)cc2cc(S(=O)(=O)O)c(N=Nc3ccc(N=Nc4cccc(S(=O)(=O)O)c4)c4ccc(O)cc34)c(O)c12 [compound 3] | – | – | – | C (dissolved in an amount of 5% or less) | D (dissolved in an amount of 1% or less) | D (dissolved in an amount of 1% or less) | A (dissolved in an amount of 10% or more) |
| Nc1cc2c(O)c(N=Nc3ccc(N=Nc4cccc(P(=O)(O)O)c4)c4ccc(S(=O)(=O)O)cc34)c(S(=O)(=O)O)cc2cc1S(=O)(=O)O [compound 5] | – | – | – | D (dissolved in an amount of 1% or less) | C (dissolved in an amount of 5% or less) | D (dissolved in an amount of 1% or less) | A (dissolved in an amount of 10% or more) |
| Nc1cc2c(O)c(N=Nc3ccc(N=Nc4cccc(P(=O)(O)O)c4)c4ccc(S(=O)(=O)O)cc34)c(S(=O)(=O)O)cc2cc1S(=O)(=O)O [compound 6] | – | – | – | C (dissolved in an amount of 5% or less) | B (dissolved in an amount of 5~10%) | C (dissolved in an amount of 5% or less) | C (dissolved in an amount of 5% or less) |
| Nc1cc(S(=O)(=O)O)cc2cc(S(=O)(=O)O)c(N=Nc3ccc(N=Nc4cccc(S(=O)(=O)O)c4)c4ccccc34)c(O)c12 [compound 8] | – | – | – | D (dissolved in an amount of 1% or less) | B (dissolved in an amount of 5~10%) | C (dissolved in an amount of 5% or less) | D (dissolved in an amount of 1% or less) |
